Laboratory results as given in ChEMBL document CHEMBL2169789, “Potent HGF/c-Met axis inhibitors from Eucalyptus globulus: the coupling of phloroglucinol and sesquiterpenoid is essential for the activity” (J Med Chem, 2012).
Blank lines part the entries; values can stand above or below the compound they belong to. Calls of active or inactive are those of the source. The rule behind the calls is not given here.

Legend:
[1] = molecular target: T1, Hepatocyte growth factor receptor (Homo sapiens, UniProt P08581); test: Inhibition of c-MET assessed as inhibition of HGF-induced phosphorylation at 5 uM by Western blotting analysis
[2] = molecular target: Hepatocyte growth factor receptor (Canis lupus familiaris) (UniProt Q75ZY9); test: Inhibition of HGF-induced phosphorylation of c-MET in MDCK cells after 2 hrs by Western blotting analysis; format: cell-based
[3] = molecular target: Hepatocyte growth factor receptor (Canis lupus familiaris) (UniProt Q75ZY9); test: Inhibition of HGF-induced phosphorylation of c-MET in MDCK cells at 5 uM after 2 hrs by Western blotting analysis; format: cell-based
[4] = molecular target: T1, Hepatocyte growth factor receptor; test: Inhibition of HGF-induced phosphorylation of c-MET in human A549 cells after 2 hrs by Western blotting analysis; format: cell-based
[5] = molecular target: T1, Hepatocyte growth factor receptor; test: Inhibition of HGF-induced phosphorylation of c-MET in human A549 cells at 5 uM after 2 hrs by Western blotting analysis; format: cell-based
[6] = molecular target: Hepatocyte growth factor receptor (Canis lupus familiaris) (UniProt Q75ZY9); test: Inhibition of c-MET in MDCK cells assessed as inhibition of HGF-induced branching morphogenesis after 5 days by microscopic analysis; format: cell-based
[7] = molecular target: Hepatocyte growth factor receptor (Canis lupus familiaris) (UniProt Q75ZY9); test: Inhibition of c-MET in MDCK cells assessed as inhibition of HGF-induced urokinase activity at 10 uM after 24 hrs; format: cell-based
[8] = molecular target: Hepatocyte growth factor receptor (Canis lupus familiaris) (UniProt Q75ZY9); test: Inhibition of c-MET in MDCK cells assessed as inhibition of HGF-induced urokinase activity after 24 hrs; format: cell-based
[9] = molecular target: Hepatocyte growth factor receptor (Canis lupus familiaris) (UniProt Q75ZY9); test: Inhibition of c-MET in MDCK cells assessed as inhibition of HGF-induced cell motility at 10 uM by wound healing assay; format: cell-based
[10] = molecular target: Hepatocyte growth factor receptor (Canis lupus familiaris) (UniProt Q75ZY9); test: Inhibition of c-MET in MDCK cells assessed as inhibition of HGF-induced cell motility by wound healing assay; format: cell-based
[11] = molecular target: Hepatocyte growth factor receptor (Canis lupus familiaris) (UniProt Q75ZY9); test: Inhibition of c-MET in MDCK cells assessed as inhibition of HGF-induced cell scattering at 10 uM after 24 hrs by microscopic analysis; format: cell-based
[12] = molecular target: Hepatocyte growth factor receptor (Canis lupus familiaris) (UniProt Q75ZY9); test: Inhibition of c-MET in MDCK cells assessed as inhibition of HGF-induced cell scattering after 24 hrs by microscopic analysis; format: cell-based
[13] = molecular target: T1, Hepatocyte growth factor receptor; test: Inhibition of c-MET by ELISA assay
[14] = molecular target: T1, Hepatocyte growth factor receptor; test: Inhibition of c-MET in human MKN45 cells assessed as reduction of phosphorylation at 20 uM after 2 hrs by Western blotting analysis; format: cell-based; conditions: MKN-45
[15] = molecular target: Hepatocyte growth factor receptor (Mus musculus) (UniProt P16056); test: Inhibition of c-MET in mouse NIH3T3 cells assessed as reduction of TPR-Met phosphorylation at 20 uM after 2 hrs by Western blotting analysis; format: cell-based
[16] = molecular target: T1, Hepatocyte growth factor receptor; test: Inhibition of HGF-induced phosphorylation of c-MET in human DU145 cells at 5 uM after 2 hrs by Western blotting analysis; format: cell-based; conditions: DU-145
[17] = molecular target: T1, Hepatocyte growth factor receptor; test: Inhibition of HGF-induced phosphorylation of c-MET in human DU145 cells after 2 hrs by Western blotting analysis; format: cell-based; conditions: DU-145
[18] = molecular target: T1, Hepatocyte growth factor receptor; test: Inhibition of HGF-induced phosphorylation of c-MET in human NCI-H441 cells at 5 uM after 2 hrs by Western blotting analysis; format: cell-based
[19] = molecular target: T1, Hepatocyte growth factor receptor; test: Inhibition of HGF-induced phosphorylation of c-MET in human NCI-H441 cells after 2 hrs by Western blotting analysis; format: cell-based

Sequence of Hepatocyte growth factor receptor (Canis lupus familiaris) (Q75ZY9 whole entry): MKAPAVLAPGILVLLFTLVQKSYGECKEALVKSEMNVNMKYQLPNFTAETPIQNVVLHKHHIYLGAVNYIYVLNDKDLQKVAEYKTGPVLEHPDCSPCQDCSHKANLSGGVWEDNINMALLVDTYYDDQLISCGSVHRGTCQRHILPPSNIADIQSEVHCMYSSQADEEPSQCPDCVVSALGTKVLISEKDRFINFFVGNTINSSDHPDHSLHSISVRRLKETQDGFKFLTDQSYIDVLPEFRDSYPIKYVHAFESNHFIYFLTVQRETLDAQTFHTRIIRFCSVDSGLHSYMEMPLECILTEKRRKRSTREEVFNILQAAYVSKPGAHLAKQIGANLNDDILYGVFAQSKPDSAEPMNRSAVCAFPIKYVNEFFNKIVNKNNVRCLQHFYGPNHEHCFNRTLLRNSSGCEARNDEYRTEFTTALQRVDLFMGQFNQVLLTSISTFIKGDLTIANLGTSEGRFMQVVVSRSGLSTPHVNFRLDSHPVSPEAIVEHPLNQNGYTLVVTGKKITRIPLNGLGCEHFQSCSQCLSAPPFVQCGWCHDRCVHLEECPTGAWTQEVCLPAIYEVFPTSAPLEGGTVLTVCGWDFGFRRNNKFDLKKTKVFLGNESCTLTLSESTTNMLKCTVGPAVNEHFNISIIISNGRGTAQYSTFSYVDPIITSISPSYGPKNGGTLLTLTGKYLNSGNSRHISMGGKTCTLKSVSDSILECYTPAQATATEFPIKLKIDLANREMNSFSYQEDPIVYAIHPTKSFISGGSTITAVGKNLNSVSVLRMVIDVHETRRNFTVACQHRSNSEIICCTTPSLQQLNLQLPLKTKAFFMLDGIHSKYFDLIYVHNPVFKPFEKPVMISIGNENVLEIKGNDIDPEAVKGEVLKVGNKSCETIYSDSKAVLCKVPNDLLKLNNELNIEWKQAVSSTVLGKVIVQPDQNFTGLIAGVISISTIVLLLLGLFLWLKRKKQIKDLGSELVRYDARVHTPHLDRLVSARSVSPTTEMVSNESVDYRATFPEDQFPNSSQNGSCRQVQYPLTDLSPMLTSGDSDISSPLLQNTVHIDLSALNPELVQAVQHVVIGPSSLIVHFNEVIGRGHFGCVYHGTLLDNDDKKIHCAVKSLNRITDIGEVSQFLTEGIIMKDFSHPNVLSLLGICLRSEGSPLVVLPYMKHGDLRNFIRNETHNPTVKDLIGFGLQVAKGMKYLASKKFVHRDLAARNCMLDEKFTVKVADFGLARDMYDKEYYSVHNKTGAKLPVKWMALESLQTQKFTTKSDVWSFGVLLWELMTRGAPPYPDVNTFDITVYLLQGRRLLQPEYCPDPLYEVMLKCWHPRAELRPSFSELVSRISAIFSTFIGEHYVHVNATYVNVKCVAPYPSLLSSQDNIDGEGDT
T1 sequence (P08581 whole entry): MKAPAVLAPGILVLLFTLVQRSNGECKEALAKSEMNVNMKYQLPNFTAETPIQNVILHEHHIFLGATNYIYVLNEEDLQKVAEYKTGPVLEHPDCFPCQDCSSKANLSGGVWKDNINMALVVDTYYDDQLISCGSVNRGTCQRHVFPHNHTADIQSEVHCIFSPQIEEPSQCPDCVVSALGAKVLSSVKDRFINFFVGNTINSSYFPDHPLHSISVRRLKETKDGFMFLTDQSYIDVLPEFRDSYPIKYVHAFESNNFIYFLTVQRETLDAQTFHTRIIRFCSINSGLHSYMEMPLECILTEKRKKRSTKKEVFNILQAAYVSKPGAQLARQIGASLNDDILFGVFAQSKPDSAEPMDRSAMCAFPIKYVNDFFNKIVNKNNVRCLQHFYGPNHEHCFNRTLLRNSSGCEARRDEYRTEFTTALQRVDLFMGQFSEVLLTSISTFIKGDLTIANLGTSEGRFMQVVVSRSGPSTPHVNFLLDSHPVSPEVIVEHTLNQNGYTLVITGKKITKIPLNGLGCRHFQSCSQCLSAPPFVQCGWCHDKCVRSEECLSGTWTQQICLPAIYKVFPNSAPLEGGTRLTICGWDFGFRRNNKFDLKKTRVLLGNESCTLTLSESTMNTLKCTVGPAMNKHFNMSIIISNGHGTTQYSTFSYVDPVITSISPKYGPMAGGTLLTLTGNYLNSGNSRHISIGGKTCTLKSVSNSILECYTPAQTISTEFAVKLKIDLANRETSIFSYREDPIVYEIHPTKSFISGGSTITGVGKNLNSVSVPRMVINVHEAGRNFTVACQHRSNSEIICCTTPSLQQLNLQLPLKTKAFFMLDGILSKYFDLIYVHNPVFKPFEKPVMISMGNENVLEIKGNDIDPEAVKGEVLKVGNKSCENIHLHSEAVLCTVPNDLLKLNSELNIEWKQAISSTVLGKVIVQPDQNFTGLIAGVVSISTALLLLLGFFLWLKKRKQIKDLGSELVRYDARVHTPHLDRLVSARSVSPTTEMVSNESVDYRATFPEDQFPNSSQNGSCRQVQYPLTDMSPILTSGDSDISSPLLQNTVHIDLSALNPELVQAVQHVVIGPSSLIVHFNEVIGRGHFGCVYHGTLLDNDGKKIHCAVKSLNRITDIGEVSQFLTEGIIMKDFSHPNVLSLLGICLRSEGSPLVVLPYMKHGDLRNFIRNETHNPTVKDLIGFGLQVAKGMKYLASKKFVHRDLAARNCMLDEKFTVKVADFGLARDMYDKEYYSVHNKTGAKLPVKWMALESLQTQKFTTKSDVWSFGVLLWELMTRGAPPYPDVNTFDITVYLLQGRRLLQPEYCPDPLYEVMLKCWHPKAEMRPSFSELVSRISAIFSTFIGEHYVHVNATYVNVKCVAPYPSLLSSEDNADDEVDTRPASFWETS
Sequence of Hepatocyte growth factor receptor (Mus musculus) (P16056 whole entry): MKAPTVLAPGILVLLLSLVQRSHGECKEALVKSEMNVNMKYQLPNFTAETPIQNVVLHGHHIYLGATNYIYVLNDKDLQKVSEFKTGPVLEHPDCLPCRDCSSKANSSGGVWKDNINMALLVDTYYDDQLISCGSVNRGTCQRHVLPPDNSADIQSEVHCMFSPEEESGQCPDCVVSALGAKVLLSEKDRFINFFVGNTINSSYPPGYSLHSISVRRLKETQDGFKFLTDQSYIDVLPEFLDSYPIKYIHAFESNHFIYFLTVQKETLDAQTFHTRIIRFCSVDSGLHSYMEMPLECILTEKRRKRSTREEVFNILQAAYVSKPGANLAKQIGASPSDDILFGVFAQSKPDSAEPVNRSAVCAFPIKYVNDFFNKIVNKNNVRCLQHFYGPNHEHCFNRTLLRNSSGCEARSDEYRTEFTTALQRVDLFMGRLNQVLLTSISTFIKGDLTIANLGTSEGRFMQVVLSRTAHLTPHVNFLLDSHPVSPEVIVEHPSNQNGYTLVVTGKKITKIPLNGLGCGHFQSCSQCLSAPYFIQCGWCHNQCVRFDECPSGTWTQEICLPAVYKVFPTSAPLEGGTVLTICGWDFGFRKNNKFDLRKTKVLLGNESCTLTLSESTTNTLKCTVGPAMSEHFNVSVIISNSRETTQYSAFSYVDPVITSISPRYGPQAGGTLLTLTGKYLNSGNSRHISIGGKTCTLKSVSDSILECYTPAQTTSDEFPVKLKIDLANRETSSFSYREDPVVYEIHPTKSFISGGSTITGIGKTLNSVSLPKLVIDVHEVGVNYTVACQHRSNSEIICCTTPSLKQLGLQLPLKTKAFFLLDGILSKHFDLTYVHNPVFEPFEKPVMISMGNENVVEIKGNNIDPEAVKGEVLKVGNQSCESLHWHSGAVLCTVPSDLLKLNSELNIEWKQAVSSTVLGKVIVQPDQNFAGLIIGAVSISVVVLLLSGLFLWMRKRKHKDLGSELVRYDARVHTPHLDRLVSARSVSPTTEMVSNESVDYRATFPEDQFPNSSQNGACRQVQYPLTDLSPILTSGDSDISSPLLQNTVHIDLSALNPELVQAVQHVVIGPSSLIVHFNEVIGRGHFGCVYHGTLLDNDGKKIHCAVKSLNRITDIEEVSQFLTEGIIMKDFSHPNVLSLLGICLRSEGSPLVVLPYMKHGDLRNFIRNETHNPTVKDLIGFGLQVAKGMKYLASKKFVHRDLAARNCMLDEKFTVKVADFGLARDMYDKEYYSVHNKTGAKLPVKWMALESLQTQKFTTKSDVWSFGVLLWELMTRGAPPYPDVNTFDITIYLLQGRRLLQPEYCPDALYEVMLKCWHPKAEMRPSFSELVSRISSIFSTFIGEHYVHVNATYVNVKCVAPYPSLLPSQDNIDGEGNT

inhibition [1]: inactive
Compound: CC(C)CC(=O)c1c(O)c(C=O)c(O)c(C=O)c1O

inhibition [1]: Active
Compound: CC(C)C[C@@H](c1c(O)c(C=O)c(O)c(C=O)c1O)[C@@]1(C)CC[C@@H]2[C@@H]1[C@H]1[C@@H](CC[C@@]2(C)O)C1(C)C

inhibition [1]: Active
Compound: CC(C)C[C@H](c1c(O)c(C=O)c(O)c(C=O)c1O)[C@@]1(C)CC[C@@H]2[C@@H]1[C@H]1[C@@H](CC[C@@]2(C)O)C1(C)C

inhibition [1]: inactive
Compound: CC1(C)[C@H]2[C@H]3[C@@H](CC[C@]3(C)O)[C@](C)(O)CC[C@H]21

inhibition [1]: inactive
Compound: C[C@@H]1CC[C@@H]2[C@@H]1[C@H]1[C@@H](CC[C@@]2(C)O)C1(C)C

inhibition [1]: inactive
Compound: Cc1c(O)c(C=O)c(O)c(C(=O)CC(C)C)c1O

inhibition [2]: Dose-dependent effect
inhibition [3]: > 50%
inhibition [4]: Dose-dependent effect
inhibition [5]: > 50%
inhibition [1]: Active
inhibition [6]: Active
inhibition [7]: 80%
inhibition [8]: Dose-dependent effect
inhibition [9]: Active
inhibition [10]: Dose-dependent effect
inhibition [11]: Active
inhibition [12]: Dose-dependent effect
IC50 [13]: > 50 µM
inhibition [14]: inactive
inhibition [15]: inactive
inhibition [16]: > 50%
inhibition [17]: Dose-dependent effect
inhibition [18]: > 50%
inhibition [19]: Dose-dependent effect
Compound: CC(C)CC(=O)c1c(O)c(C=O)c(O)c(C[C@@]2(C)CC[C@@H]3[C@@H]2[C@H]2[C@@H](CC[C@@]3(C)O)C2(C)C)c1O [EUCALYPTIN A]
